The values below come from ChEMBL document CHEMBL4043067, “Synthesis and cytotoxic activities of goniothalamins and derivatives” (Bioorg Med Chem, 2017).

Data set [1] deals with A549. The data set can be described thus: Antiproliferative activity against human A549 cells after 48 hrs by CellTiter-Glo luminescent cell viability assay. The following applies: A549, 48 h. The format is functional, cell-based. In general terms: Cellular ATP, detected with luciferase, serves as a proxy for viable cell number.
Data set [2] relates to HBL-100. The data set can be described thus: Antiproliferative activity against human HBL100 cells after 48 hrs by CellTiter-Glo luminescent cell viability assay. It counts as functional, cell-based. The note with it: HBL-100, 48 h.
Data set [3] deals with MCF7. The data set can be described thus: Antiproliferative activity against human MCF7 cells after 48 hrs by CellTiter-Glo luminescent cell viability assay. The format is functional, cell-based. The note with it: MCF7, 48 h.
The subject of data set [4] is Saccharomyces cerevisiae. The data set can be described thus: Cytotoxicity against Saccharomyces cerevisiae YRE1001 up to 100 ug/ml after 48 hrs by liquid drug assay.
In data set [5] the test system is Saccharomyces cerevisiae. The data set can be described thus: Inhibition of Pdr5 ATPase activity in Saccharomyces cerevisiae YRE1001 plasma membranes assessed as residual activity at 5 ug/ml after 20 mins in presence of ATP by colorimetric assay relative to control.
The test system of data set [6] is Saccharomyces cerevisiae. The data set can be described thus: Inhibition of Pdr5 in Saccharomyces cerevisiae YRE1001 plasma membranes assessed as reduction in rhodamine 6G transport by measuring relative fluorescence intensity at 50 ug/ml preincubated with enzyme followed by ATP addition measured for 20 mins by fluorescence assay relative to control. Also on record: scale not given: the % may be the effect or the level left.

Data set [7] deals with Saccharomyces cerevisiae. The data set can be described thus: Inhibition of Pdr5 in Saccharomyces cerevisiae YRE1001 plasma membranes assessed as reduction in rhodamine 6G transport by measuring relative fluorescence intensity at 5 ug/ml preincubated with enzyme followed by ATP addition measured for 20 mins by fluorescence assay relative to control. The arrangement: scale not given: the % may be the effect or the level left.

For data set [8], the system named is Saccharomyces cerevisiae. The data set can be described thus: Inhibition of Pdr5 in Saccharomyces cerevisiae YRE1001 plasma membranes assessed as reduction in rhodamine 6G transport by measuring relative fluorescence intensity at 500 ug/ml preincubated with enzyme followed by ATP addition measured for 20 mins by fluorescence assay relative to control. The arrangement: scale not given: the % may be the effect or the level left.

Data set [9] concerns Saccharomyces cerevisiae. The data set can be described thus: Inhibition of Pdr5 ATPase activity in Saccharomyces cerevisiae YRE1001 plasma membranes assessed as residual activity at 50 ug/ml after 20 mins in presence of ATP by colorimetric assay relative to control.
Data set [10] has as its system Saccharomyces cerevisiae. The data set can be described thus: Inhibition of Pdr5 ATPase activity in Saccharomyces cerevisiae YRE1001 plasma membranes assessed as residual activity at 500 ug/ml after 20 mins in presence of ATP by colorimetric assay relative to control.
Data set [11] deals with Saccharomyces cerevisiae. The data set can be described thus: Inhibition of Pdr5 in Saccharomyces cerevisiae YRE1001 plasma membranes assessed as reduction in rhodamine 6G transport by measuring relative fluorescence intensity at 125 ug/ml preincubated with enzyme followed by ATP addition measured for 20 mins by fluorescence assay relative to control. The arrangement: scale not given: the % may be the effect or the level left.

Data set [12] deals with Saccharomyces cerevisiae. The data set can be described thus: Inhibition of Pdr5 ATPase activity in Saccharomyces cerevisiae YRE1001 plasma membranes assessed as residual activity at 250 ug/ml after 20 mins in presence of ATP by colorimetric assay relative to control.
Data set [13] has as its system Saccharomyces cerevisiae. The data set can be described thus: Inhibition of Pdr5 ATPase activity in Saccharomyces cerevisiae YRE1001 plasma membranes assessed as residual activity at 13 ug/ml after 20 mins in presence of ATP by colorimetric assay relative to control.
Data set [14] has as its system Saccharomyces cerevisiae. The data set can be described thus: Inhibition of Pdr5 in Saccharomyces cerevisiae YRE1001 plasma membranes assessed as reduction in rhodamine 6G transport by measuring relative fluorescence intensity at 13 ug/ml preincubated with enzyme followed by ATP addition measured for 20 mins by fluorescence assay relative to control. The arrangement: scale not given: the % may be the effect or the level left.

Data set [15] relates to Saccharomyces cerevisiae. The data set can be described thus: Inhibition of Pdr5 ATPase activity in Saccharomyces cerevisiae YRE1001 plasma membranes assessed as residual activity at 125 ug/ml after 20 mins in presence of ATP by colorimetric assay relative to control.

SMILES strings stand for the structures. Some results are limits rather than exact numbers.

By IC50 is commonly meant the midpoint of a concentration-inhibition curve. Consider `O=C1C=CC[C@H]([C@@H]2C[C@H]2c2ccccc2)O1`, for which the values for the IC50 in data set [1], in [2] and in data set [3] were 62.8 µM, 43.4 µM and over 100 µM, respectively. Also, the Activity entry in data set [4] is reported as “Toxic”.

For the compound `O=C1C=CC[C@H](/C=C/c2ccccc2)O1` [GONIOTHALAMIN], the IC50 in data set [1] came to 5.7 µM; in data set [2], 20.9 µM; in data set [3], 55.5 µM. For the same compound, the Activity was 71.7% in data set [5]; 10% in [6]; 60% in data set [7]; -2% in [8]; 30% in data set [9]; 24.3% in data set [10]. Further, in [4], the Activity result is on record as “Toxic”.

Consider `O=C1CCC[C@H]([C@H]2C[C@@H]2c2ccccc2)O1`, for which the concentration for half-maximal inhibition (IC50) in data set [1], in [2] and in data set [3] was over 100 µM each time. Also, the Activity entry in data set [4] is recorded as “Toxic”.

As to `C[C@@H](Cc1ccccc1)[C@H]1CCCC(=O)O1`, the IC50 in [1], in data set [2] and in data set [3] was over 100 µM throughout. The Activity entry in data set [4] is given as “Toxic”.

On to `O=C1C=CC[C@H](/C=C/c2ccc([N+](=O)[O-])cc2)O1`, for which the IC50 in [1] worked out at 15.4 µM; in [2] it was 6.7 µM; in data set [3] it was 28.8 µM. In addition, the Activity in data set [11] is 21%; in [12], 50%; in [13], 79.3%; in data set [14], 54%; in data set [15] it was 51%; in data set [4], “Toxic”.

As to `O=C1CCC[C@H]([C@@H]2C[C@H]2c2ccccc2)O1`, the IC50 in data set [1], in data set [2] and in data set [3] was over 100 µM in each case. Besides, the Activity result in data set [4] is recorded as “Toxic”.

On to `O=C1C=CC[C@H]([C@H]2C[C@@H]2c2ccccc2)O1`, for which the figures for the IC50 in data set [1], in [2] and in data set [3] were 11.6 µM, 14.4 µM and 48.2 µM, respectively. Besides, the Activity result in data set [4] was “Toxic”.

In the case of `COc1ccc(/C=C/[C@@H]2CC=CC(=O)O2)cc1`, the values for the IC50 in data set [1], in data set [2] and in data set [3] were over 100 µM, over 100 µM and 88.7 µM, respectively. In addition, the Activity entry in data set [4] is “Toxic”.

For the compound `O=C1C=CC[C@@H]([C@H]2C[C@@H]2c2ccccc2)O1`, the values for the IC50 in data set [1], in [2] and in data set [3] were 15.2 µM, 34.9 µM and 68.3 µM, respectively. Further, in data set [4], the Activity entry is “Toxic”.

For the compound `O=C1C=CC[C@@H](/C=C/c2ccccc2)O1`, the IC50 in data set [1] is 70.3 µM; in [2], over 100 µM; in [3], over 100 µM. Moreover, the Activity entry in data set [4] is “Toxic”.

`C[C@H](Cc1ccccc1)[C@H]1CCCC(=O)O1`: the IC50 in [1], in data set [2] and in data set [3] was over 100 µM each time. In addition, the Activity entry in data set [4] was “Toxic”.

On to `O=C1C=CC[C@@H](/C=C/c2ccc([N+](=O)[O-])cc2)O1`, for which the IC50 in data set [1], in data set [2] and in [3] was over 100 µM in each case. The Activity entry in [4] is on record as “Toxic”.

With `O=C1C=CC[C@@H](/C=C/C2CCCCC2)O1`, the values for the IC50 in data set [1], in [2] and in data set [3] were 68.6 µM, 48.2 µM and over 100 µM, respectively. Also, the Activity amounted to 88% in [5]; 37% in data set [6]; 86% in data set [7]; 0% in data set [8]; 74.7% in data set [9]; 53% in data set [10]. The Activity result in data set [4] was “Toxic”.

In the case of `O=C1C=CC[C@H](/C=C/c2ccc(F)cc2)O1`, the IC50 came to 10.2 µM in data set [1], 14.1 µM in [2] and 76.2 µM in data set [3]. Further, in [4], the Activity entry is on record as “Toxic”.

On to `O=C1C=CC[C@@H](/C=C/c2ccc(F)cc2)O1`, for which the IC50 in [1], in [2] and in data set [3] was over 100 µM throughout. The Activity was 71% in data set [5]; 75% in data set [6]; 99% in data set [7]; 10% in [8]; 40.7% in data set [9]; 26.3% in data set [10]. Also, the Activity result in data set [4] was “Toxic”.

As for `O=C1C=CCC(/C=C/c2ccccc2)O1` (racemic), the IC50 in [1] is 34.7 µM; in data set [2], 22.4 µM; in data set [3] it was over 100 µM. In [4], the Activity result is “Toxic”.

Consider `O=C1CCC[C@@H]([C@H]2C[C@@H]2c2ccccc2)O1`, for which the IC50 in [1], in data set [2] and in data set [3] was over 100 µM in each case. The Activity entry in [4] is “Toxic”.

`O=C1C=CC[C@H](/C=C/C2CCCCC2)O1`: the IC50 in data set [1] is 31 µM; in [2] it was 29 µM; in data set [3], over 100 µM. Further, the Activity in [5] was 98%; in [6] it was 18%; in data set [7], 91%; in data set [8], -8%; in data set [9], 79%; in data set [10], 56%. Further, the Activity result in data set [4] is recorded as “Toxic”.

As for `COc1ccc(/C=C/[C@H]2CC=CC(=O)O2)cc1`, the IC50 in data set [1], in [2] and in [3] was over 100 µM each time. Moreover, the Activity in data set [5] was determined as 25.7%; in [6] it was 4%; in data set [7], 44%; in data set [8] it was 0%; in [9] it was 8.7%; in [10], 0%. For the same compound, the Activity result in data set [4] is on record as “Non-Toxic”.
